According to patent US10143667B2, “Ceramide-like function imparting agent” (KAO CORPORATION, priority 2013, dated 2018):

Assays:
[1] = Evaluation of lamellar-formation ability (X-ray diffraction); assay type: physicochemical; parameters: key to Evaluation of X-ray diffraction measurement: wide-angle X-ray measurement: A: diffraction peaks originating from crystals of stearic acid and cholesterol disappeared and only the peaks originating from a lamellar structure were observed near 2θ=22°; B: diffraction peaks originating from crystals of stearic acid and cholesterol remained but peaks originating approximately from a lamellar structure were observed; C: peaks originating from a lamellar structure were observed only partly; D: no peaks originating from a lamellar structure were observed; key to Evaluation of X-ray diffraction measurement: small-angle X-ray measurement: E: diffraction peaks originating from a periodic structure of lamellar structure were observed; F: no diffraction peaks were observed; details: equimolar mixture of stearic acid, cholesterol and sample, 30 wt % ion-exchange water
Protocol: Evaluation of lamellar-formation ability was conducted according to the method by Mizushima et al. (Lipids, 30(4), 327-332 (1995)).
Each of stearic acid and cholesterol, used as representatives of fatty acids that are horny layer intercellular lipids, as well as a sample to be evaluated was weighed to give an equimolar mixture, and an ion-exchange water was added thereto in an amount of 30 wt % of the weight of the lipids. The mixture was heat-melted and then cooled to give an evaluation sample.
Wide-angle X-ray diffraction apparatus ((PANalytical) X' Pert MRD High Resolution X-ray Diffractometer)
Small-angle X-ray scattering apparatus ((NANO Viewer manufactured by RIGAKU Corporation), Small-angle X-ray scattering)
In the case where the wide-angle X-ray diffraction apparatus was used, sampling for measurement was conducted by finely grinding a sample in an agate mortar and packing the sample in a measurement cell to give a flat surface. In the case of small-angle X-ray scattering apparatus, the sample was packed in a cell made of stainless steel having grid openings of approximately 4 mm in width and 2 mm in depth.
Conditions for wide-angle X-ray diffraction measurement: measurement cell: a cell for exclusive use made of stainless steel, applied voltage: 45 kV, applied current: 40 mA.
measured range: 2θ=3° to 45°, measurement speed: 2θ=1°/min.
Conditions for small-angle X-ray measurement: measurement cell: a sample that was packed in a stainless steel holder having grid openings was measured.
applied voltage: […], applied current: 30 mA, X-ray irradiation period: 30 minutes, measured at a camera length of from 450 to 650 mm using a detector with an imaging plate.
In a wide-angle X-ray diffraction measurement, a symbol A was assigned to a sample wherein diffraction peaks originating from crystals of stearic acid and cholesterol disappeared and only the peaks originating from a lamellar structure were observed near 2θ=22°, a symbol B was assigned to a sample wherein diffraction peaks originating from crystals of stearic acid and cholesterol remained but peaks originating approximately from a lamellar structure were observed, a symbol C was assigned to a sample wherein peaks originating from a lamellar structure were observed only partly, and a symbol D was assigned to a sample wherein no peaks originating from a lamellar structure were observed. In addition, in a small-angle X-ray measurement, a symbol E was assigned to a sample wherein diffraction peaks originating from a periodic structure of lamellar structure were observed, and a symbol F was assigned to a sample wherein no diffraction peaks were observed.

[2] = Evaluation as to occlusion (TEWL-inhibition), lipid-impregnated filter paper; details: filter paper immersed in 10% lipid mixture solution; average of three measurements; versus solvent-only filter
Protocol: Evaluation as to occlusion was conducted according to the method by Akasaki et al. (Fragrance Journal, extra edition, No. 13, p. 65, 1994).
Each of stearic acid and cholesterol, used as representatives of fatty acids that are horny layer intercellular lipids, and a sample to be evaluated was weighed into a screw tube, and a mixed liquid of chloroform and methanol (9:1 by volume) was used to give a 10% solution of the lipid mixture (w/v). A filter paper ([…] Co. Ltd., No. 5C, ϕ=21 mm) was immersed in the 10% solution, and then taken out, dried at room temperature, heated at 90° C. for one hour, hydrated by a water sprayer, heat-treated at 60° C. for 12 hours, and then cooled. The filter thus prepared was set in a vial charged with ion-exchange water (20 ml), and the weight of the filter was measured over time to calculate an amount of TEWL. As a control, was measured an amount of TEWL of a filter which had been immersed only in a mixed liquid of chloroform and methanol (9:1 by volume). A control rate of TEWL (%) was calculated according to the following equation: Control rate of TEWL (%)=(1−amount of TEWL of evaluated sample/amount of TEWL of control)×100. 2) Results

[3] = Measurement on bonded water content (differential scan calorimetric analysis); assay type: physicochemical; details: equimolar mixture of stearic acid, cholesterol and sample plus ion-exchange water; DSC
Protocol: Measurement on bonded water content was conducted according to the method by Akasaki et al. (Fragrance Journal, extra edition, No. 13, pp. 66-67, 1994).
1) Differential scan calorimetric analyzer: (DSC6100 (SII Seiko Instruments Inc.)).
A sample prepared by adding ion-exchange water to an equimolar mixture of stearic acid and cholesterol, both used as representatives of fatty acids that are a horny layer intercellular lipid, and a sample to be evaluated, was encapsulated in a cell, and the water content thereof was measured. The temperature of the sample was raised from −40° C. at a rate of 1° C./minute to obtain an enthalpy change accompanied by the temperature raise. A bonded water content was determined from the relation between a water content of a lipid mixture (an amount of moisture absorbed) and a change of peak of enthalpy (melting heat), and an enthalpy change was obtained from the point 0.

Row | Compound | Evaluation of X-ray diffraction measurement: small-angle X-ray measurement [1] | Evaluation of X-ray diffraction measurement: wide-angle X-ray measurement [1] | TEWL inhibition rate [2] [%] | Bonded water content [3] [% by mass]
1 | 2-(hexadecyl/octadecyl)-N,N,-bis(2-hydroxyethyl)succinamide [Compound 2] | E | B | – | –
2 | CCCCCCCCCCCCCCCC(=O)NCCO [Comparative Compound 1, N-(2-hydroxyethyl)palmitamide, reference compound] | F | D | – | –
3 | CCCCCCCCCCCCC/C=C/CC(CC(=O)NCCCCCCCCCCCCCCCC)C(=O)NCCCCCCCCCCCCCCCC (centres unmarked) [Comparative Compound 3, (E)-2-(hexadeca-2-en-1-yl)-N,N,-dihexadecylsuccinamide, reference compound] | F | D | – | –
4 | CCCCCCCCCCCCCCCCOCC(O)CN(CCO)C(=O)CCCCCCCCCCCCCCC (centres unmarked) [Sphingolipid E, reference compound] | E | A | 32.8 | 7.1
5 | (E)-2-(eicosa/docosa/tetracosa)-2-en-1-yl)-N,N,-bis(2-hydroxyethyl)succinamide [Compound 5] | E | A | – | –
6 | (E)-2-(hexadeca/octadeca)-2-en-1-yl)-N,N,-bis(1-hydroxypropan-2-yl)succinamide [Compound 4] | E | C | – | –
7 | (E)-2-(hexadeca/octadeca)-2-en-1-yl)-N,N,-bis(2-(2-hydroxy-ethoxy)ethyl)succinamide [Comparative Compound 2, reference compound] | F | D | 24.2 | –
8 | (E)-2-(hexadeca/octadeca)-2-en-1-yl)-N,N,-bis(2-hydroxyethyl)succinamide [Compound 1] | E | B | – | –
9 | (E)-2-(hexadeca/octadeca)-2-en-1-yl)-N-hexadecyl-N-(2-hydroxyethyl)succinamide [Comparative compound 4] | – | – | 27.4 | –
10 | (E)-N,N,-bis(1,3-dihydroxy-2-(hydroxymethyl)propan-2-yl)-2-((hexadeca/octadeca)-2-en-1-yl)-succinamide [Compound 7] | E | A | – | –
11 | (E)-N,N,-bis(1,3-dihydroxy-2-methylpropan-2-yl)-2-((hexadeca/octadeca)-2-en-1-yl)-succinamide [Compound 6] | E | B | – | –
12 | (E)-N,N,-bis(3-hydroxypropyl)-2-((hexadeca/octadeca)-2-en-1-yl)-succinamide [Compound 3] | E | C | – | –
